Measurements published in PMC5327383, “Pneumococcal galactose catabolism is controlled by multiple regulators acting on pyruvate formate lyase” (Scientific Reports, 2017).
Counter-ions that a name gives are not always drawn.

Target: CcpA (Streptococcus pneumoniae, UniProt A0A0H2ZQ65)
Details: 10 mM; room temperature; raises DNA affinity; direct binding of formate not shown

Chain of CcpA (A0A0H2ZQ65 entry or part of it): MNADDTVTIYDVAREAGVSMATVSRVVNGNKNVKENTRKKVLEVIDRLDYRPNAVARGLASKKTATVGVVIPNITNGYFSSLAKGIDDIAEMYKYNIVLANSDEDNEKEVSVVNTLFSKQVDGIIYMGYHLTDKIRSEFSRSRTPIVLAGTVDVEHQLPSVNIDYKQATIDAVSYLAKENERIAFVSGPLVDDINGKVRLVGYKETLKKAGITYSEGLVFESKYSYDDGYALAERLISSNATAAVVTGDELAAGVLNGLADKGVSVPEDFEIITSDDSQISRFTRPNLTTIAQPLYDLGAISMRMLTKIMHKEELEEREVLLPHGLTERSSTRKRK

## O=CO [sodium formate]
  EMSA with pflB promoter DNA, protein preincubated with compound: formate enhanced the binding of CcpA to PpflB
